Broadly, the IC50 is the concentration needed to halve the response being measured. In general, IC90 refers to the point of the concentration-response curve where the effect stands at 90%.

Each structure is given as a SMILES string.

The results in this text go back to ChEMBL document CHEMBL4483862, “Open-source discovery of chemical leads for next-generation chemoprotective antimalarials” (2018).

The assay relates to Plasmodium berghei. The assay can be described thus: Luciferase/luciferin-expressing antifolate-resistant parasites were used to infect a culture of HepG2 cells that were pre-incubated with compounds. Infected hepatocytes emit light due to the luciferase reaction. Assay results are presented as the percent inhibition of light emission compared to control. […]. Format: functional. The following applies: sporozoite; for IC90: read-out: LUCIFERASE INFECTION ASSAY - IC90.

[1] abbreviates: read-out: LUCIFERASE INFECTION ASSAY - IC50.

Regarding `COc1cc(-c2cnn3ccc(Nc4ccc(C(C)C)cc4)nc23)cc(OC)c1OC`, the IC90 was found to be 4.97 µM. Besides, where the note is “HEPG2TOX_HILL_SLOPE 4.98, HEPG2TOX_R_SQUARED 0.891, PBLUC_HILL_SLOPE 3.46, PBLUC_R_SQUARED 0.366, read-out: LUCIFERASE INFECTION ASSAY - IC50”, the 50% inhibitory concentration (IC50) is 2.63 µM.

In the case of `O=C(NCc1cccc(Cl)c1)C1=COC2=NC(=O)N(Cc3cccc(Cl)c3)CCN12`, the IC90 was above 10 µM. Moreover, the IC50 under setting [1] was above 10 µM.

In the case of `O=C1NC2(CCOc3ccccc32)C(=O)N1Cc1cc2ccccc2nc1Cl` (stereo not given), the IC90 came out at 1.37 µM. For the same compound, the IC50 (HEPG2TOX_HILL_SLOPE 1.06, HEPG2TOX_R_SQUARED 0.922, PBLUC_HILL_SLOPE 24.2, PBLUC_R_SQUARED 0.349, read-out: LUCIFERASE INFECTION ASSAY - IC50) came to 1.25 µM.

As to `CC(=O)Nc1ccc(NC(=O)/C(C#N)=C/c2c(Cl)cccc2Cl)cc1`, the 90% effect concentration (IC90) is above 10 µM. The IC50 (PBLUC_HILL_SLOPE 14.2, PBLUC_R_SQUARED 0.281, read-out: LUCIFERASE INFECTION ASSAY - IC50) came to 9.36 µM.

Turning to `Clc1ccc(-c2csc(NCC3CCCO3)n2)cc1` (stereo not given), the 90% effect concentration (IC90) is above 11.2 µM. For the same compound, the 50% inhibitory concentration (IC50) under setting [1] is above 11.2 µM.

Turning to `CN(C)c1cccc(-c2cnc3sc(NCCc4ccncc4)nn23)c1`, the IC90 is above 9.05 µM. Moreover, the IC50 under setting [1] was above 9.05 µM.

For the compound `Cn1ccc2cc(-c3cnc4cnc(-c5ccc(N)nc5)cn34)ccc21`, the IC90 is 5.78 µM. Moreover, the IC50 (HEPG2TOX_HILL_SLOPE 1.74, HEPG2TOX_R_SQUARED 0.96, PBLUC_HILL_SLOPE 2.26, PBLUC_R_SQUARED 0.858, read-out: LUCIFERASE INFECTION ASSAY - IC50) was 2.18 µM.

On to `O=[N+]([O-])c1ccccc1Sc1sc2ncnc(N/N=C/c3ccc(Cl)cc3Cl)c2c1-c1ccccc1`, for which the 90% effect concentration (IC90) is above 10 µM. Besides, the IC50 (FFLUC_HILL_SLOPE 17, FFLUC_R_SQUARED 0.5, read-out: LUCIFERASE INFECTION ASSAY - IC50) is above 10 µM.

Turning to `Cc1cc(C(O)=C2Sc3ccccc3C2=O)c(C)n1C`, the IC90 was above 10 µM. Moreover, under setting [1], the half-maximal inhibitory concentration (IC50) is above 10 µM.

Take `O=C1c2ccccc2C(=Cc2ccc(C(F)(F)F)cc2)c2ccccc21`: the concentration for an effect of 90% (IC90) worked out at 4.1 µM. In addition, the IC50 under setting [1] amounted to 3.58 µM.

Regarding `CC(C)c1ccc(CSc2nnc(CC3CCS(=O)(=O)C3)o2)cc1` (stereo not given), the 90% effect concentration (IC90) is above 10 µM. Further, under setting [1], the IC50 was above 10 µM.

For `Cc1c(C(=O)OC(C)C(=O)Nc2ccc(F)cc2Cl)sc2nc3n(c(=O)c12)CCC3` (stereo not given), the IC90 was above 10 µM. Besides, the IC50 (FFLUC_HILL_SLOPE 12.5, FFLUC_R_SQUARED 0.0754, PBLUC_HILL_SLOPE 2.35, PBLUC_R_SQUARED 0.872, read-out: LUCIFERASE INFECTION ASSAY - IC50) was determined as 5.4 µM.

For the compound `CCC(C(=O)Nc1nc2ccccn2c1C(=O)NC1CCCCC1)c1ccccc1` (stereo not given), the IC90 is above 8.16 µM. The concentration for half-maximal inhibition (IC50) (PBLUC_HILL_SLOPE 15.5, PBLUC_R_SQUARED 0.112, read-out: LUCIFERASE INFECTION ASSAY - IC50) is 7.66 µM.

Turning to `CCc1[nH]c(=O)c(C#N)c(-c2ccccc2)c1C(=O)OC`, the IC90 is above 11.7 µM. The IC50 under setting [1] was above 11.7 µM.

For the compound `COc1cccc(CN2CCN3C=C(C(=O)Nc4ccc(C(C)C)cc4)OC3=NC2=O)c1`, the concentration for an effect of 90% (IC90) came to 9.3 µM. Besides, where the note is “HEPG2TOX_HILL_SLOPE 3.72, HEPG2TOX_R_SQUARED 0.984, PBLUC_HILL_SLOPE 3.98, PBLUC_R_SQUARED 0.662, read-out: LUCIFERASE INFECTION ASSAY - IC50”, the IC50 came out at 5.35 µM.

With `O=C1C=CC(=O)N1c1cc(Cl)ccc1Cl`, the 90% effect concentration (IC90) was above 13.6 µM. For the same compound, the IC50 (FFLUC_HILL_SLOPE 10.4, FFLUC_R_SQUARED 0.533, read-out: LUCIFERASE INFECTION ASSAY - IC50) was above 13.6 µM.

With `CCCCNC1=C(NS(=O)(=O)c2ccc(NC(C)=O)cc2)C(=O)c2ccccc2C1=O`, the concentration for an effect of 90% (IC90) was above 10 µM. The IC50 (PBLUC_HILL_SLOPE 2.17, PBLUC_R_SQUARED 0.634, read-out: LUCIFERASE INFECTION ASSAY - IC50) amounted to 3.66 µM.

Consider `O=C1CCCN1c1cccc(Oc2nc(-c3cccnc3)nc3ccccc23)c1`, for which the IC90 was above 10 µM. For the same compound, the half-inhibitory concentration (IC50) under setting [1] was above 10 µM.

For `COc1ccc(S(=O)(=O)N2CCN(c3cc(C)c4ccccc4n3)CC2)cc1`, the IC90 was above 8.3 µM. Under setting [1], the IC50 is above 8.3 µM.

As for `Cn1c(NCC2CC2)nc2cnc(-c3cccc(Oc4ccccc4)c3)cc21`, the IC90 is above 10 µM. The IC50 under setting [1] is 5.67 µM.

In the case of `CCOc1cccc(-c2cn3c(-c4ccc(OC)cc4)cnc3cn2)c1`, the 90% effect concentration (IC90) was determined as 0.375 µM. Where the note is “HEPG2TOX_HILL_SLOPE 0.801, HEPG2TOX_R_SQUARED 0.8, PBLUC_HILL_SLOPE 14.9, PBLUC_R_SQUARED 0.835, read-out: LUCIFERASE INFECTION ASSAY - IC50”, the IC50 came to 0.324 µM.

On to `CC(C)(C)c1ccc(/C=N/NC(=O)CNc2ccccc2F)cc1`, for which the concentration for an effect of 90% (IC90) was above 10 µM. Moreover, the IC50 under setting [1] is above 10 µM.

`CCCc1c(NC(=O)Nc2ccc(F)cc2)cnn1-c1ccccc1`: the IC90 was determined as 6.91 µM. For the setting “HEPG2TOX_HILL_SLOPE 4.02, HEPG2TOX_R_SQUARED 0.285, PBLUC_HILL_SLOPE 3.66, PBLUC_R_SQUARED 0.261, read-out: LUCIFERASE INFECTION ASSAY - IC50”, the IC50 was determined as 3.79 µM.

Regarding `COc1ccccc1NS(=O)(=O)c1ccc2oc(Nc3ccc(Cl)c(C(F)(F)F)c3)nc2c1`, the IC90 was above 10 µM. For the same compound, the half-inhibitory concentration (IC50) under setting [1] was above 10 µM.

Consider `C[C@H](NC(=O)[C@@H]1CSC2c3ccccc3C(=O)N21)C(=O)NC1CCCCC1` (stereo not given in full), for which the IC90 was above 8.52 µM. The IC50 under setting [1] is above 8.52 µM.

Consider `COc1ccc(NC(=O)CN(C)c2nc(-c3cccnc3)nc3sc(C)c(C)c23)cc1`, for which the IC90 was 3.92 µM. Further, the IC50 (PBLUC_HILL_SLOPE 1.86E+03, PBLUC_R_SQUARED 0.436, read-out: LUCIFERASE INFECTION ASSAY - IC50) is 3.92 µM.

`O=C(Nc1cccc(C(F)(F)F)c1)Nc1ccc2nc(-c3ccoc3)nn2c1`: the IC90 was determined as 5.31 µM. The IC50 (HEPG2TOX_HILL_SLOPE 8.17, HEPG2TOX_R_SQUARED 0.681, PBLUC_HILL_SLOPE 272, PBLUC_R_SQUARED 0.378, read-out: LUCIFERASE INFECTION ASSAY - IC50) worked out at 5.27 µM.

As for `CCCc1c(NC(=O)Nc2cc(C(F)(F)F)cc(C(F)(F)F)c2)cnn1-c1ccccc1`, the 90% effect concentration (IC90) came to 3.79 µM. Besides, for the setting “FFLUC_HILL_SLOPE 11.3, FFLUC_R_SQUARED 0.657, HEPG2TOX_HILL_SLOPE 5.77, HEPG2TOX_R_SQUARED 0.944, PBLUC_HILL_SLOPE 9.21, PBLUC_R_SQUARED 0.384, read-out: LUCIFERASE INFECTION ASSAY - IC50”, the half-maximal inhibitory concentration (IC50) worked out at 2.99 µM.

For the compound `CC(Nc1ncnc2scc(-c3ccccc3)c12)c1ccc(S(C)(=O)=O)cc1` (stereo not given), the IC90 is 7.11 µM. Further, the IC50 (HEPG2TOX_HILL_SLOPE 1.17, HEPG2TOX_R_SQUARED 0.977, PBLUC_HILL_SLOPE 2.44, PBLUC_R_SQUARED 0.865, read-out: LUCIFERASE INFECTION ASSAY - IC50) was found to be 2.89 µM.

Consider `COc1cccc(-c2cc3c(Nc4ccc(Oc5ccccc5)cc4)nccc3[nH]2)c1`, for which the 90% effect concentration (IC90) was determined as 4 µM. The IC50 (HEPG2TOX_HILL_SLOPE 11.8, HEPG2TOX_R_SQUARED 0.973, PBLUC_HILL_SLOPE 14.2, PBLUC_R_SQUARED 0.35, read-out: LUCIFERASE INFECTION ASSAY - IC50) amounted to 3.43 µM.

As for `N#Cc1ccc(Sc2c(Cl)cccc2Cl)c(NC(=O)c2cccc(Cl)c2)c1`, the concentration for an effect of 90% (IC90) was above 7.61 µM. In addition, the half-maximal inhibitory concentration (IC50) (PBLUC_HILL_SLOPE 1.82, PBLUC_R_SQUARED 0.326, read-out: LUCIFERASE INFECTION ASSAY - IC50) was determined as 6.05 µM.

With `CC(C)c1cc(=O)oc2cc(OS(=O)(=O)c3cc(C(N)=O)n(C)c3)ccc12`, the concentration for an effect of 90% (IC90) is above 10 µM. Under setting [1], the concentration for half-maximal inhibition (IC50) was above 10 µM.

Consider `OC(/C(=N/Nc1ncnc2ccccc12)c1ccccc1)c1ccccc1` (stereo not given), for which the 90% effect concentration (IC90) stood at 6.04 µM. Also, the IC50 (HEPG2TOX_HILL_SLOPE 1.63, HEPG2TOX_R_SQUARED 0.814, PBLUC_HILL_SLOPE 71.4, PBLUC_R_SQUARED 0.509, read-out: LUCIFERASE INFECTION ASSAY - IC50) worked out at 5.86 µM.

Turning to `CC(C)c1ccc(NC(=O)c2csc(C(O)c3ccccc3)n2)cc1` (stereo not given), the concentration for an effect of 90% (IC90) was above 10 µM. Besides, the IC50 (HEPG2TOX_HILL_SLOPE 0.582, HEPG2TOX_R_SQUARED 0.837, PBLUC_HILL_SLOPE 1.67, PBLUC_R_SQUARED 0.415, read-out: LUCIFERASE INFECTION ASSAY - IC50) came out at 7.47 µM.

As for `O=C(Nc1cccc(C(F)(F)F)c1)Nc1ccc2nc(Cc3ccccc3)nn2c1`, the 90% effect concentration (IC90) was determined as 3.8 µM. The IC50 (HEPG2TOX_HILL_SLOPE 10.6, HEPG2TOX_R_SQUARED 0.963, PBLUC_HILL_SLOPE 15.5, PBLUC_R_SQUARED 0.643, read-out: LUCIFERASE INFECTION ASSAY - IC50) was found to be 3.3 µM.

For `CCOc1ccc(C2NC(=O)NC(C)=C2C(=O)OCC2CCCO2)cc1OC` (stereo not given), the IC90 was above 8.45 µM. For the same compound, the 50% inhibitory concentration (IC50) under setting [1] was above 8.45 µM.

For `COc1ccccc1-c1cc(C(=O)Nc2ccc(N3CCCC3)cc2)no1`, the IC90 is above 10 µM. Also, the IC50 under setting [1] was above 10 µM.

In the case of `CC(C)CCn1c(SCC(=O)N2CCc3ccccc3C2)nc2ccccc2c1=O`, the IC90 is above 10 µM. For the same compound, under setting [1], the IC50 is above 10 µM.

Turning to `Cc1cc(O)nc(N/N=C/c2cc(C)n(CC(F)(F)F)c2C)n1`, the IC90 is above 10 µM. Where the note is “HEPG2TOX_HILL_SLOPE 2.49, HEPG2TOX_R_SQUARED 0.474, PBLUC_HILL_SLOPE 1.68, PBLUC_R_SQUARED 0.728, read-out: LUCIFERASE INFECTION ASSAY - IC50”, the 50% inhibitory concentration (IC50) is 3.36 µM.

For `O=S(=O)(Nc1cccc(C(F)(F)F)c1)c1c(F)c(Br)cc(F)c1Br`, the IC90 was above 6.67 µM. Moreover, the IC50 (PBLUC_HILL_SLOPE 1.15, PBLUC_R_SQUARED 0.311, read-out: LUCIFERASE INFECTION ASSAY - IC50) was above 6.67 µM.
